Data published in patent publication US20170107212A1, “NOVEL COMPOUNDS” (Bayer Pharma Aktiengesellschaft, priority 2014, published 2017).
Where a name gives a salt, the structure may show the parent alone.

What was measured:
[1] = test system: constitutive active colorectal cancer cell (CRC) Wnt pathway, HCT116 TOPFlash; assay: Cellular reporter assay, HCT116 Super TopFlash (constitutive active Wnt pathway), luciferase expression; type: cell-based; details: HCT116 Super TopFlash reporter cells, 36 hours incubation, dilution series 50 μM to 15 nM
Procedure: In order to discover and characterize small molecules which inhibit the constitutive active colorectal cancer cell (CRC) Wnt pathway, a cellular reporter assay was employed. The corresponding assay cell was generated by transfection of the colorectal cancer cell line HCT116 (ATCC, #CCL-247) with the Super TopFlash vector (Morin, Science 275, 1997, 1787-1790; Molenaar et al., Cell 86 (3), 1996, 391-399). The HCT116 cell line is cultivated at 37° C. and 5% CO2 in DMEM/F-12 (Life Technologies, #11320-074), supplemented with 2 mM glutamine, 20 mM HEPES, 1.4 mM pyruvate, 0.15% Na-bicarbonate and 10% foetal bovine serum (GIBCO, #10270), this cancer cell line is pathophysiological relevant since it carries a deletion of position S45 in the β-catenin gene, leading to constitutive active Wnt signaling. Stable transfectants were generated by cotransfection with pcDNA3 and selection of stable transfected cells with 1 mg/ml G418.
(§1) In preparation of the assay, the two cell lines were plated 24 hours before at 10000 cells per well of a 384 micro titre plate (MTP) in 30 μL growth medium. Selective inhibitory activity for small molecules on the mutated Wnt pathway was determined after parallel incubation of both (TOP and FOP) HCT116 reporter cell lines with a compound dilution series from 50 μM to 15 nM in steps of 3.16-fold dilutions in CAFTY buffer (130 mM NaCl, 5 mM KCl, 20 mM HEPES, 1 mM MgCl2, 5 mM NaHCO3, pH 7.4) containing 2 mM Ca^2+ and 0.01% BSA. The compounds were thereby serially prediluted in 100% DMSO and thereafter in addition 50 fold into the CAFTY compound dilution buffer (described above). From this dilution 10 μL were added to the cells in 30 μL growth medium and incubated for 36 hours at 37° C. and 5% CO2. Thereafter luciferase assay buffer (1:1 mixture of luciferase substrate buffer (20 mM Tricine, 2.67 mM MgSO4, 0.1 mM EDTA, 4 mM DTT, 270 μM Coenzyme A, 470 μM Luciferin, 530 μM ATP, ph adjusted to pH 7.8 with a sufficient volume of 5M NaOH) and Triton buffer (30 mL Triton X-100, 115 mL glycerol, 308 mg Dithiothreitol, 4.45 g Na2HPO4.2H2O, 3.03 g TRIS HCl, ad 1 l H20, pH 7.8) was added as equal volume to the compound solution on the cells to determine luciferase expression as a measure of Wnt signaling activity in a luminometer.

[2] = test system: HCT116 FOPFlash; assay: Control reporter assay, HCT116 FOP control vector (non-functional TCF elements), luciferase expression; type: cell-based; details: HCT116 FOP control reporter cells, 36 hours incubation, dilution series 50 μM to 15 nM
Procedure: In a parallel approach, HCT116 cells were cotransfected with the FOP control vector and pcDNA3. The FOP vector is identical to the TOP construct, but it contains instead of functional TCF elements a randomized, non-functional sequence. For this transfection a stable transfected cell line was generated as well.
as §1

| SMILES | IC50 ([1]; Homo sapiens, HCT-116, 36 h) [µM] | IC50 ([2]; Homo sapiens, HCT-116, 36 h) [µM] | also measured |
| --- | --- | --- | --- |
| CN1CCN(CC(=O)Nc2cc(C(=O)Nc3nnc(-c4cnccn4)s3)ccc2OC(F)(F)F)CC1 [Example 97, 3-{[(4-methylpiperazin-1-yl)acetyl]amino}-N-[5-(pyrazin-2-yl)-1,3,4-thiadiazol-2-yl]-4-(trifluoromethoxy)benzamide] | 7.05 | ≥ 50 |  |
| CN1CCN(CC(=O)Nc2cc(C(=O)Nc3nnc(-c4ccc(N)nc4)s3)ccc2OC(F)(F)F)CC1 [Example 38, N-[5-(6-aminopyridin-3-yl)-1,3,4-thiadiazol-2-yl]-3-{[(4-methylpiperazin-1-yl)acetyl]amino}-4-(trifluoromethoxy)benzamide] | 0.268 | ≥ 50 |  |
| CN1CCN(CC(=O)Nc2cc(C(=O)Nc3ccc(-c4cnc(N)nc4)cn3)ccc2OC(F)(F)F)CC1 [Example 12, N-[5-(2-aminopyrimidin-5-yl)pyridin-2-yl]-3-{[(4-methylpiperazin-1-yl)acetyl]amino}-4-(trifluoromethoxy)benzamide] | 0.132 | ≥ 50 |  |
| CN1CCN(CC(=O)Nc2cc(C(=O)Nc3nnc(-c4ccnc(N)c4)s3)ccc2OC(F)(F)F)CC1 [Example 90, N-[5-(2-aminopyridin-4-yl)-1,3,4-thiadiazol-2-yl]-3-{[(4-methylpiperazin-1-yl)acetyl]amino}-4-(trifluoromethoxy)benzamide] | 7.4 | 31 |  |
| Nc1ncc(-c2nnc(NC(=O)c3ccc(OC(F)(F)F)c(NC(=O)C4(N5CCOCC5)CC4)c3)s2)cn1 [Example 33, N-[5-(2-aminopyrimidin-5-yl)-1,3,4-thiadiazol-2-yl]-3-({[1-(morpholin-4-yl)cyclopropyl]carbonyl}amino)-4-(trifluoromethoxy)benzamide] | 0.197 | ≥ 50 |  |
| Nc1ccc(-c2ccc(NC(=O)c3ccc(OC(F)(F)F)c(NC(=O)CN4CCOCC4)c3)nc2)cn1 [Example 15, N-(6′-amino-3,3′-bipyridin-6-yl)-3-[(morpholin-4-ylacetyl)amino]-4-(trifluoromethoxy)benzamide] | 0.0815 | ≥ 50 |  |
| Cc1csc(-c2nnc(NC(=O)c3ccc(OC(F)(F)F)c(NC(=O)CN4CCN(C)CC4)c3)s2)n1 [Example 63, 3-{[(4-methylpiperazin-1-yl)acetyl]amino}-N-[5-(4-methyl-1,3-thiazol-2-yl)-1,3,4-thiadiazol-2-yl]-4-(trifluoromethoxy)benzamide] | 1.08 | 43.5 |  |
| Cc1ncc(-c2nnc(NC(=O)c3ccc(OC(F)(F)F)c(NC(=O)CN4CCN(C)CC4)c3)s2)s1 [Example 99, 3-{[(4-methylpiperazin-1-yl)acetyl)amino}-N-[5-(2-methyl-1,3-thiazol-5-yl)-1,3,4-thiadiazol-2-yl]-4-(trifluoromethoxy)benzamide] | 8.55 | ≥ 50 |  |
| CN1CCN(CC(=O)Nc2cc(C(=O)Nc3nnc(-c4ncccc4F)s3)ccc2OC(F)(F)F)CC1 [Example 43, 4-(2-{[5-{[5-(3-fluoropyridin-2-yl)-1,3,4-thiadiazol-2-yl]carbamoyl}-2-(trifluoromethoxy)phenyl]amino}-2-oxoethyl)-1-methylpiperazin-1-ium hexafluorophosphate] |  |  | IC50 ([1]; Homo sapiens, HCT-116): 2 µM; IC50 ([2]; Homo sapiens, HCT-116): 32 µM |
| O=C(CN1CCOCC1)Nc1cc(C(=O)Nc2nnc(-c3ccncc3)s2)ccc1OC1CC1 [Example 116, 4-(cyclopropyloxy)-3-[(morpholin-4-ylacetyl)amino]-N-[5-(pyridin-4-yl)-1,3,4-thiadiazol-2-yl]benzamide] | ≥ 50 | ≥ 50 |  |
| CN1CCN(CC(=O)Nc2cc(C(=O)Nc3nnc(-c4ccccn4)s3)ccc2OC(F)(F)F)CC1 [Example 9, 3-{[(4-methylpiperazin-1-yl)acetyl]amino}-N-[5-(pyridin-2-yl)-1,3,4-thiadiazol-2-yl]-4-(trifluoromethoxy)benzamide hydrochloride] | 0.514 | 22.5 |  |
| CN1CCN(CC(=O)Nc2cc(C(=O)Nc3nnc(-c4cccnc4)s3)ccc2OCC(F)(F)F)CC1 [Example 50, 3-{[(4-methylpiperazin-1-yl)acetyl]amino}-N-[5-(pyridin-3-yl)-1,3,4-thiadiazol-2-yl]-4-(2,2,2-trifluoroethoxy)benzamide hydrochloride (1:1)] | 0.293 | 20.5 |  |
| O=C(CN1CCOCC1)Nc1cc(C(=O)Nc2nnc(-c3cnccn3)s2)ccc1OC(F)(F)F [Example 88, 3-[(morpholin-4-ylacetyl)amino]-N-[5-(pyrazin-2-yl)-1,3,4-thiadiazol-2-yl]-4-(trifluoromethoxy)benzamide] | ≥ 50 | ≥ 50 |  |
| CN1CCN(C2(C(=O)Nc3cc(C(=O)Nc4nnc(-c5cncnc5)s4)ccc3OC(F)(F)F)CC2)CC1 [Example 29, 3-({[1-(4-methylpiperazin-1-yl)cyclopropyl]carbonyl}amino)-N-[5-(pyrimidin-5-yl)-1,3,4-thiadiazol-2-yl]-4-(trifluoromethoxy)benzamide] | 0.206 | ≥ 50 |  |
| O=C(CN1CCOCC1)Nc1cc(C(=O)Nc2nnc(-c3cccnc3)s2)ccc1OC(F)(F)F [Example 82, 3-[(morpholin-4-ylacetyl)amino]-N-[5-(pyridin-3-yl)-1,3,4-thiadiazol-2-yl]-4-(trifluoromethoxy)benzamide] | 21.2 | ≥ 50 |  |
| Cc1ccncc1-c1nnc(NC(=O)c2ccc(OC(F)(F)F)c(NC(=O)CN3CCN(C)CC3)c2)s1 [Example 37, 3-{[(4-methylpiperazin-1-yl)acetyl]amino}-N-[5-(4-methylpyridin-3-yl)-1,3,4-thiadiazol-2-yl]-4-(trifluoromethoxy)benzamide] |  |  | IC50 [1]: 0.61 µM; IC50 [2]: ≥ 50 µM |
| Nc1ccc(-c2nnc(NC(=O)c3ccc(OC4CC4)c(NC(=O)CN4CCOCC4)c3)s2)cn1 [Example 119, N-[5-(6-aminopyridin-3-yl)-1,3,4-thiadiazol-2-yl]-4-(cyclopropyloxy)-3-[(morpholin-4-ylacetyl)amino]benzamide] | ≥ 50 | ≥ 50 |  |
| CN1CCN(CC(=O)Nc2cc(C(=O)Nc3nnc(-c4cccnc4)s3)c(F)cc2OC(F)(F)F)CC1 [Example 77, 2-fluoro-5-{[(4-methylpiperazin-1-yl)acetyl]amino}-N-[5-(pyridin-3-yl)-1,3,4-thiadiazol-2-yl]-4-(trifluoromethoxy)benzamide] | 0.18 | ≥ 50 |  |
| Cc1ccncc1-c1nnc(NC(=O)c2ccc(OCC3COC3)c(NC(=O)CN3CCN(C)CC3)c2)s1 [Example 115, 3-{[(4-methylpiperazin-1-yl)acetyl]amino}-N-[5-(4-methylpyridin-3-yl)-1,3,4-thiadiazol-2-yl]-4-(oxetan-3-ylmethoxy)benzamide] | ≥ 50 | ≥ 50 |  |
| CN1CCN(CC(=O)Nc2cc(C(=O)Nc3nnc(-c4cncs4)s3)ccc2OC(F)(F)F)CC1 [Example 68, 3-{[(4-methylpiperazin-1-yl)acetyl]amino}-N-[5-(1,3-thiazol-5-yl)-1,3,4-thiadiazol-2-yl]-4-(trifluoromethoxy)benzamide] | 1.86 | ≥ 50 |  |
| O=C(CN1CCOCC1)Nc1cc(C(=O)Nc2ccc(-c3cncnc3)cn2)ccc1OC(F)(F)F [Example 1, 3-[(morpholin-4-ylacetyl)amino]-N-[5-(pyrimidin-5-yl)pyridin-2-yl]-4-(trifluoromethoxy)benzamide] | 0.145 | ≥ 50 |  |
| Cc1cccnc1-c1nnc(NC(=O)c2ccc(OC(F)(F)F)c(NC(=O)CN3CCOCC3)c2)s1 [Example 89, N-[5-(3-methylpyridin-2-yl)-1,3,4-thiadiazol-2-yl]-3-[(morpholin-4-ylacetyl)amino]-4-(trifluoromethoxy)benzamide] | 0.845 | ≥ 50 |  |
